One experiment concerns the target T1, Adenosine receptor A2b (Homo sapiens, UniProt P29275).
T1 sequence (P29275 whole entry): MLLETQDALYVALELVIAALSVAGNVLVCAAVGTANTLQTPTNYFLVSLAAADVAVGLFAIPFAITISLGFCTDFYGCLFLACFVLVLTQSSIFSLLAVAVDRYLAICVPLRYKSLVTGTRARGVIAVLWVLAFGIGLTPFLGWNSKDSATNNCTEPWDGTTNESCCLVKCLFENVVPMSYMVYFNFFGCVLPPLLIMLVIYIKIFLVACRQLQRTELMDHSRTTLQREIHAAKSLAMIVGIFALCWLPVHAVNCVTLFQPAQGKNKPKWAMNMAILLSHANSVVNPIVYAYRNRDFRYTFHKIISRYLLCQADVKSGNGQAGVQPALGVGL
Put plainly: Antagonist activity at human adenosine A2B receptor expressed in CHO cells assessed as inhibition of NECA-induced adenylyl cyclase activity. The class given is functional, cell-based.

A further experiment addresses T2, Adenosine receptor A1 (Homo sapiens, UniProt P30542).
T2 sequence (P30542 whole entry): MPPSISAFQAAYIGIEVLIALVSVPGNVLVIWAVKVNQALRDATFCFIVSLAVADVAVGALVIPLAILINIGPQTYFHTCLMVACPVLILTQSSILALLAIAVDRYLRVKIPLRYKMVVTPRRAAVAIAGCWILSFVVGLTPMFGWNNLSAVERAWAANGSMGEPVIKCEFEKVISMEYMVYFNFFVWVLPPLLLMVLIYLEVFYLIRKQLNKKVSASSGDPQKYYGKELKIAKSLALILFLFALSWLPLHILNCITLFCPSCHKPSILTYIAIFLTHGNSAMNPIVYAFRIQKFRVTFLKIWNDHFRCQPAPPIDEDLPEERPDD
Put plainly: Displacement of [3H]CCPA from human adenosine A1 receptor expressed in CHO cells. It is filed as cell-based.

The target of a further experiment is T3, Adenosine receptor A3 (Homo sapiens, UniProt P0DMS8).
T3 sequence (P0DMS8 whole entry): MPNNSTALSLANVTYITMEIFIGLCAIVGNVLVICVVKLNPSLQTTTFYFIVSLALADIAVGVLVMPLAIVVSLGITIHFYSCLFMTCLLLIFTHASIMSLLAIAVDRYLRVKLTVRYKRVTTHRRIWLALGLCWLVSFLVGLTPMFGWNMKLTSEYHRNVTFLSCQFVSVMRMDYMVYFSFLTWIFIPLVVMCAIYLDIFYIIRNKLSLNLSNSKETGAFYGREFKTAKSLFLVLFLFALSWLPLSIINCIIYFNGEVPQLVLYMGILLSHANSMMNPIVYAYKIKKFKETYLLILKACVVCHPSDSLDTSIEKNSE
Kind of experiment: Displacement of [3H]NECA from human adenosine A3 receptor expressed in CHO cells. The class given is cell-based. (In a radioligand displacement assay an active substance lowers the binding of a labelled ligand.)

In another experiment the target is Adenosine receptor A2a (Homo sapiens, UniProt P29274). Kind of experiment: biochemical.

Some results are limits rather than exact numbers.

Sequence of Adenosine receptor A2a (P29274 whole entry): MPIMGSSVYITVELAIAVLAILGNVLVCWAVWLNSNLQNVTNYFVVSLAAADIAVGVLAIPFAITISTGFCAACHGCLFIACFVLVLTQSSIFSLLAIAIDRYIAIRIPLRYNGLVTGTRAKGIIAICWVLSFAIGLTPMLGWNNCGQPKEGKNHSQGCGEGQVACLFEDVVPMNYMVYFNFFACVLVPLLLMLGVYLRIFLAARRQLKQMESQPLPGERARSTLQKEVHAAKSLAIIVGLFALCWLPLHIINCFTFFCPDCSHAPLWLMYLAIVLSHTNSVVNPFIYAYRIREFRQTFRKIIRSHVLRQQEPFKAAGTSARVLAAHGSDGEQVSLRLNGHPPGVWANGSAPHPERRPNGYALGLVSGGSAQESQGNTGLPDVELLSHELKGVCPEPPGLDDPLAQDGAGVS
Description for Adenosine receptor A2a: Displacement of [3H]NECA from human adenosine A2A receptor expressed in CHO cells

As for `O=C(Nc1nc2nn(CCc3ccccc3)cc2c2nc(-c3ccco3)nn12)C(c1ccccc1)c1ccccc1`, the IC50 (commonly the concentration that inhibits the measured activity by half) at Adenosine receptor A2b turned out to be 5840 nM. Further, the Ki (as a rule, the equilibrium dissociation constant of an inhibitor or competing ligand from its target) on Adenosine receptor A1 worked out at 115 nM; at Adenosine receptor A3, 6.49 nM; on Adenosine receptor A2a, 53.1 nM.
In the case of `CCCn1cc2c(nc(NC(=O)C(c3ccccc3)c3ccccc3)n3nc(-c4ccco4)nc23)n1`, the IC50 at Adenosine receptor A2b was determined as 491 nM. Besides, the figures for the inhibition constant (Ki) on Adenosine receptor A1, on Adenosine receptor A3 and at Adenosine receptor A2a were 80.2 nM, 0.93 nM and 46.5 nM, respectively.
For `O=C(Cc1ccc(-c2ccccc2)cc1)Nc1nc2nn(CCc3ccccc3)cc2c2nc(-c3ccco3)nn12`, in that order: 11100 nM, 84.3 nM, 125 nM and 46.9 nM.
As to `Cn1cc2c(nc(NC(=O)Cc3ccc(C(F)(F)F)cc3)n3nc(-c4ccco4)nc23)n1`, the IC50 at Adenosine receptor A2b is over 10000 nM. Besides, the figures for the Ki at Adenosine receptor A1, at Adenosine receptor A3 and at Adenosine receptor A2a were 768 nM, 1.22 nM and 75.9 nM, respectively.
For the compound `CC(C)CCn1cc2c(nc(NC(=O)Cc3c(Cl)cccc3Cl)n3nc(-c4ccco4)nc23)n1`, the IC50 at Adenosine receptor A2b was 1440 nM. Also, the Ki at Adenosine receptor A1 was determined as 121 nM; at Adenosine receptor A3 it was 207 nM; at Adenosine receptor A2a, 18.7 nM.
On to `CCn1cc2c(nc(NC(=O)Cc3ccsc3)n3nc(-c4ccco4)nc23)n1`, for which the IC50 on Adenosine receptor A2b is 9370 nM. Besides, the Ki at Adenosine receptor A1 came to 154 nM; on Adenosine receptor A3 it was 765 nM; at Adenosine receptor A2a, 23 nM.
Take `Cn1cc2c(nc(NC(=O)Cc3ccc(-c4ccccc4)cc3)n3nc(-c4ccco4)nc23)n1`: the IC50 on Adenosine receptor A2b is over 10000 nM. Further, the Ki on Adenosine receptor A1 is 1460 nM; on Adenosine receptor A3, 11.2 nM; at Adenosine receptor A2a, 193 nM.
As for `CC(C)CCn1cc2c(nc(NC(=O)C(c3ccccc3)c3ccccc3)n3nc(-c4ccco4)nc23)n1`, the IC50 at Adenosine receptor A2b was over 10000 nM. Also, the Ki at Adenosine receptor A1 is 441 nM; on Adenosine receptor A3 it was 5.86 nM; on Adenosine receptor A2a, 159 nM.
On to `CCCn1cc2c(nc(NC(=O)Cc3ccc4ccccc4c3)n3nc(-c4ccco4)nc23)n1`, for which the IC50 on Adenosine receptor A2b amounted to 5370 nM. Moreover, the Ki turned out to be 160 nM at Adenosine receptor A1, 95.9 nM on Adenosine receptor A3 and 7.99 nM at Adenosine receptor A2a.
For `CC(C)CCn1cc2c(nc(NC(=O)Cc3ccc(C(F)(F)F)cc3)n3nc(-c4ccco4)nc23)n1`, in that order: 5480 nM, 48.2 nM, 266 nM and 5.43 nM.
For `CCCCn1cc2c(nc(NC(=O)Cc3ccc(-c4ccccc4)cc3)n3nc(-c4ccco4)nc23)n1`, in that order: 8630 nM, 381 nM, 189 nM and 39.6 nM.
With `Cn1cc2c(nc(NC(=O)Cc3ccc4ccccc4c3)n3nc(-c4ccco4)nc23)n1`, at Adenosine receptor A2b, the IC50 was over 10000 nM. The Ki at Adenosine receptor A1 was 190 nM; on Adenosine receptor A3 it was 14.5 nM; at Adenosine receptor A2a, 77.5 nM.
For `CCCn1cc2c(nc(NC(=O)Cc3ccc(-c4ccccc4)cc3)n3nc(-c4ccco4)nc23)n1`, in that order: over 10000 nM, 622 nM, 65.4 nM and 52.5 nM.
`CC(C)CCn1cc2c(nc(NC(=O)Cc3ccc4ccccc4c3)n3nc(-c4ccco4)nc23)n1`: the half-maximal inhibitory concentration (IC50) on Adenosine receptor A2b was over 10000 nM. Moreover, the results for the Ki at Adenosine receptor A1, at Adenosine receptor A3 and on Adenosine receptor A2a were 140 nM, 409 nM and 15.7 nM, respectively.
The corresponding values for `O=C(Cc1ccc2ccccc2c1)Nc1nc2nn(CCCc3ccccc3)cc2c2nc(-c3ccco3)nn12` are over 50000 nM, 241 nM, 717 nM and 73.6 nM.
On to `Cn1cc2c(nc(NC(=O)Cc3ccc(F)cc3)n3nc(-c4ccco4)nc23)n1`, for which the IC50 at Adenosine receptor A2b is 13000 nM. The Ki on Adenosine receptor A1 turned out to be 741 nM; on Adenosine receptor A3, 0.97 nM; on Adenosine receptor A2a it was 54.1 nM.
In the case of `Cn1cc2c(nc(NC(=O)Cc3ccsc3)n3nc(-c4ccco4)nc23)n1`, the IC50 at Adenosine receptor A2b is 13700 nM. The Ki came to 461 nM at Adenosine receptor A1, 1.25 nM on Adenosine receptor A3 and 31.3 nM at Adenosine receptor A2a.
For `CC(C)CCn1cc2c(nc(NC(=O)Cc3cccc(Cl)c3)n3nc(-c4ccco4)nc23)n1`, in that order: 1390 nM, 13.7 nM, 273 nM and 1.86 nM.
For `Cn1cc2c(nc(NC(=O)COc3ccc(Cl)cc3)n3nc(-c4ccco4)nc23)n1`, in that order: over 10000 nM, 963 nM, 223 nM and 39.3 nM.
For `O=C(Cc1ccc2ccccc2c1)Nc1nc2nn(CCc3ccccc3)cc2c2nc(-c3ccco3)nn12`, the IC50 at Adenosine receptor A2b is over 50000 nM. For the same compound, the Ki on Adenosine receptor A1 worked out at 57.5 nM; at Adenosine receptor A3, 180 nM; on Adenosine receptor A2a it was 42.1 nM.
For `CCn1cc2c(nc(NC(=O)Cc3ccc4ccccc4c3)n3nc(-c4ccco4)nc23)n1`, the IC50 at Adenosine receptor A2b was found to be 10400 nM. Also, the Ki worked out at 185 nM at Adenosine receptor A1, 36.3 nM at Adenosine receptor A3 and 18.4 nM on Adenosine receptor A2a.
For `O=C(Nc1nc2nn(CCCc3ccccc3)cc2c2nc(-c3ccco3)nn12)C(c1ccccc1)c1ccccc1`, on Adenosine receptor A2b, the IC50 is over 10000 nM. In addition, the Ki at Adenosine receptor A1 amounted to 307 nM; at Adenosine receptor A3, 12.6 nM; at Adenosine receptor A2a, 326 nM.
For `CCCCn1cc2c(nc(NC(=O)Cc3ccsc3)n3nc(-c4ccco4)nc23)n1`, in that order: 906 nM, 25.5 nM, 189 nM and 3.13 nM.
`O=C(Cc1cccc2ccccc12)Nc1nc2nn(CCCc3ccccc3)cc2c2nc(-c3ccco3)nn12`: the IC50 at Adenosine receptor A2b is over 100000 nM. Also, the values for the Ki on Adenosine receptor A1, at Adenosine receptor A3 and at Adenosine receptor A2a were 710 nM, 343 nM and 305 nM, respectively.
As for `CC(C)CCn1cc2c(nc(NC(=O)Cc3ccc(Cl)cc3)n3nc(-c4ccco4)nc23)n1`, the IC50 on Adenosine receptor A2b stood at 1220 nM. In addition, the Ki on Adenosine receptor A1 is 22.6 nM; on Adenosine receptor A3 it was 56.5 nM; at Adenosine receptor A2a, 2.75 nM.
Consider `Cn1cc2c(nc(NC(=O)Cc3ccc(Cl)cc3)n3nc(-c4ccco4)nc23)n1`, for which the IC50 at Adenosine receptor A2b is over 50000 nM. For the same compound, the Ki at Adenosine receptor A1 amounted to 1850 nM; on Adenosine receptor A3, 12.7 nM; on Adenosine receptor A2a, 156 nM.
`O=C(Cc1ccc(Cl)cc1)Nc1nc2nn(CCCc3ccccc3)cc2c2nc(-c3ccco3)nn12`: on Adenosine receptor A2b, the IC50 was over 10000 nM. The Ki at Adenosine receptor A1 amounted to 256 nM; on Adenosine receptor A3, 30.5 nM; at Adenosine receptor A2a it was 89.9 nM.
Take `CCn1cc2c(nc(NC(=O)Cc3cccs3)n3nc(-c4ccco4)nc23)n1`: the IC50 at Adenosine receptor A2b amounted to 15000 nM. The Ki turned out to be 148 nM on Adenosine receptor A1, 196 nM at Adenosine receptor A3 and 15.9 nM on Adenosine receptor A2a.
For the compound `CCCn1cc2c(nc(NC(=O)Cc3cccc4ccccc34)n3nc(-c4ccco4)nc23)n1`, the IC50 at Adenosine receptor A2b came out at 12400 nM. The Ki was 388 nM on Adenosine receptor A1, 17.3 nM at Adenosine receptor A3 and 38.7 nM at Adenosine receptor A2a.

The values are drawn from ChEMBL document CHEMBL1154073, “Combining selectivity and affinity predictions using an integrated Support Vector Machine (SVM) approach: An alternative tool to discriminate between the human adenosine A(2A) and A(3) receptor pyrazolo-triazolo-pyrimidine antagonists binding sites” (Bioorg Med Chem, 2009).
